Experimental data from ChEMBL document CHEMBL3822394, “Discovery of a Potent, Selective, Orally Bioavailable, and Efficacious Novel 2-(Pyrazol-4-ylamino)-pyrimidine Inhibitor of the Insulin-like Growth Factor-1 Receptor (IGF-1R)” (J Med Chem, 2016).
≈ marks a conversion by molar mass, not a printed value. Each block holds one compound with its values, some of them ahead of it. Calls of active or inactive are those of the source. No cut-off for these calls is given here.

What was measured:
[1] = Octanol-buffer partition co-efficient, log D of the compound at pH 7.4 by shake-flask method; type: physicochemical
[2] = Thermodynamic solubility of the compound in aqueous phosphate buffer at pH 7.4 at 25 degC after 24 hrs by LC-UV method; type: physicochemical; conditions: read-out: Therm_solubility
[3] = Fraction unbound in rat plasma by equilibrium dialysis; type: ADME, cell-free
[4] = Fraction unbound in dog plasma by equilibrium dialysis; type: ADME, cell-free, Canis lupus familiaris
[5] = Intrinsic clearance in rat hepatocytes assessed per 10^6 cells; type: ADME, cell-based, Hepatocyte; conditions: read-out: CLH
[6] = Intrinsic clearance in dog hepatocytes assessed per 10^6 cells; type: ADME, cell-based, Canis lupus familiaris, Hepatocyte; conditions: read-out: CLH
[7] = Intrinsic clearance in human hepatocytes assessed per 10^6 cells; type: ADME, cell-based, Hepatocyte; conditions: read-out: CLH
[8] = Clearance in Han Wistar rat plasma at 2 or 4 umol/kg, iv or 10 umol/kg, po; type: ADME, organism-based
[9] = Clearance in Beagle dog plasma at 1 or 4 umol/kg, iv or 10 umol/kg, po; type: ADME, organism-based, Canis lupus familiaris
[10] = Volume of distribution at steady state in Han Wistar rat plasma at 2 or 4 umol/kg, iv or 10 umol/kg, po; type: ADME, organism-based; conditions: read-out: Vdss
[11] = Volume of distribution at steady state in Beagle dog at 1 or 4 umol/kg, iv or 10 umol/kg, po; type: ADME, organism-based, Canis lupus familiaris; conditions: in vivo, read-out: Vdss
[12] = Oral bioavailability in Han Wistar rat plasma at 10 umol/kg; type: ADME, organism-based
[13] = Oral bioavailability in Beagle dog at 10 umol/kg; type: ADME, organism-based, Canis lupus familiaris; conditions: in vivo
[14] = Clearance in Han Wistar rat blood at 2 or 4 umol/kg, iv or 10 umol/kg, po; type: ADME, organism-based; conditions: whole blood
[15] = Volume of distribution at steady state in Han Wistar rat blood at 2 or 4 umol/kg, iv or 10 umol/kg, po; type: ADME, organism-based; conditions: whole blood, read-out: Vdss
[16] = Oral bioavailability in Han Wistar rat blood at 10 umol/kg; type: ADME, organism-based; conditions: whole blood
[17] = target: Cyclin-dependent kinase 2 (Homo sapiens, UniProt P24941)
Cytochrome P450 3A4 = Cytochrome P450 3A4 (Homo sapiens, UniProt P08684)
Chain of Cytochrome P450 3A4 (P08684 whole entry): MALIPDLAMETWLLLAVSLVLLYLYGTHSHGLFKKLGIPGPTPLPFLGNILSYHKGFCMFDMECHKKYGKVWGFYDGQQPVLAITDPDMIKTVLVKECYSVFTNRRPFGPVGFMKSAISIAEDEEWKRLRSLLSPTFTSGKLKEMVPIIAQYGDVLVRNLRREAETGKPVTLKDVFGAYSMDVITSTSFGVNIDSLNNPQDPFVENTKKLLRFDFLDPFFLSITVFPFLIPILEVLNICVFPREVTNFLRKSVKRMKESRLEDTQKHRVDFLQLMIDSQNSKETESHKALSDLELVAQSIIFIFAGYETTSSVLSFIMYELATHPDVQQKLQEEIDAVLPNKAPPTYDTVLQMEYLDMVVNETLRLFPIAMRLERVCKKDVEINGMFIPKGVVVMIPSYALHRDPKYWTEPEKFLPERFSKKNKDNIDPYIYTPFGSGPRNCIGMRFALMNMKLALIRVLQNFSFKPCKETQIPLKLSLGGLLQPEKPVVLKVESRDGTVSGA

Mus musculus = experiment: T>IC50 for IGF1R in nude mouse at 50 mg/kg, po
[18] = AUC in nude mouse at 50 mg/kg, po; type: ADME, organism-based; conditions: in vivo
[19] = Cmax in nude mouse at 50 mg/kg, po; type: ADME, organism-based; set-up: dose 50 mg/kg, route oral; conditions: in vivo
P12 [20] = experiment: Inhibition of IGF1R phosphorylation in mouse P12 cells allografted in po dosed nu/nu mouse administered as single dose measured after 1 to 2 hrs post dosing; type: functional, organism-based
P12 [21] = experiment: Antitumor activity against mouse P12 cells allografted in nu/nu mouse assessed as tumor growth inhibition at 12.5 to 25 mg/kg, po qd for 7 days; type: functional, organism-based
COLO 205 [22] = experiment: Antitumor activity against human COLO205 cells xenografted in nude mouse assessed as tumor growth inhibition at 50 mg/kg, po for 2 days per week; type: functional, organism-based
COLO 205 [23] = experiment: Potentiation of gemcitabine-induced antitumor activity against human COLO205 cells xenografted in nude mouse assessed as tumor growth inhibition at 25 mg/kg, po for 2 weeks; type: functional, organism-based
COLO 205 [24] = experiment: Potentiation of gemcitabine-induced antitumor activity against human COLO205 cells xenografted in nude mouse assessed as increase in stasis at 50 mg/kg, po for 1 week; type: functional, organism-based
COLO 205 [25] = experiment: Potentiation of gemcitabine-induced antitumor activity against human COLO205 cells xenografted in nude mouse assessed as tumor growth inhibition at 50 mg/kg, po for 1 week followed by drug cessation measured after 14 days; type: functional, organism-based
[26] = target: Cyclin-dependent kinase 1 (Homo sapiens, UniProt P06493)
Chain of Cyclin-dependent kinase 1 (P06493 whole entry): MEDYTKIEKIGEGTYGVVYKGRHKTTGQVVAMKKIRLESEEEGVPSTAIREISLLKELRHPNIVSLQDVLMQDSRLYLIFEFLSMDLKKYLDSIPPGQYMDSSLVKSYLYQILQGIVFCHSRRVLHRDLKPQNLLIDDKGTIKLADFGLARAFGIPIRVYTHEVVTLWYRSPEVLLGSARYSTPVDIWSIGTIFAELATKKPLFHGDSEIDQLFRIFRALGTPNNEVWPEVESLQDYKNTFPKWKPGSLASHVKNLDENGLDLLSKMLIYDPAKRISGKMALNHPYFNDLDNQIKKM

[27] = target: Cyclin-dependent kinase 7 (Homo sapiens, UniProt P50613)
Chain of Cyclin-dependent kinase 7 (P50613 whole entry): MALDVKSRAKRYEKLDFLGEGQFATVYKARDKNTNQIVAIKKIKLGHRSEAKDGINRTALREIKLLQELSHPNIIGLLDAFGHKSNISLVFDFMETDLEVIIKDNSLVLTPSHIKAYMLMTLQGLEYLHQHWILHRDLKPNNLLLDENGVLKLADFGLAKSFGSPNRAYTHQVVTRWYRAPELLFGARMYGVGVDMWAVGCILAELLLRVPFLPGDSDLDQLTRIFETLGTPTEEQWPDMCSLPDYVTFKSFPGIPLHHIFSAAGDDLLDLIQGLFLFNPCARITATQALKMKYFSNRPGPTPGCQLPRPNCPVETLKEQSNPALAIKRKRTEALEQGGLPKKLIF

[28] = target: Cyclin-dependent kinase 8 (Homo sapiens, UniProt P49336)
Chain of Cyclin-dependent kinase 8 (P49336 whole entry): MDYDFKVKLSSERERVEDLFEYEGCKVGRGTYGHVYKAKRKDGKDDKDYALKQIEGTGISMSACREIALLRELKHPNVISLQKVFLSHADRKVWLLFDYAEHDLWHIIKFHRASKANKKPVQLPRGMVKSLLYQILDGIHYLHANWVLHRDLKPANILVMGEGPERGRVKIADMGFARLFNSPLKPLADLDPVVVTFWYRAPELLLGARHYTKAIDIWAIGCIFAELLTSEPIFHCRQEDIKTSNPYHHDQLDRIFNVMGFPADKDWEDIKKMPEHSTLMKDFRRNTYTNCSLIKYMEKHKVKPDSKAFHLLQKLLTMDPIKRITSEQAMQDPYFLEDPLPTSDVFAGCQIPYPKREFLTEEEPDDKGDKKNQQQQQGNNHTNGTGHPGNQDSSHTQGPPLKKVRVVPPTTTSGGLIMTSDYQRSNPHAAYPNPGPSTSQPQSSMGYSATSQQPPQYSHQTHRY

[29] = target: Cyclin-dependent kinase 9 (Homo sapiens, UniProt P50750)
Chain of Cyclin-dependent kinase 9 (P50750 whole entry): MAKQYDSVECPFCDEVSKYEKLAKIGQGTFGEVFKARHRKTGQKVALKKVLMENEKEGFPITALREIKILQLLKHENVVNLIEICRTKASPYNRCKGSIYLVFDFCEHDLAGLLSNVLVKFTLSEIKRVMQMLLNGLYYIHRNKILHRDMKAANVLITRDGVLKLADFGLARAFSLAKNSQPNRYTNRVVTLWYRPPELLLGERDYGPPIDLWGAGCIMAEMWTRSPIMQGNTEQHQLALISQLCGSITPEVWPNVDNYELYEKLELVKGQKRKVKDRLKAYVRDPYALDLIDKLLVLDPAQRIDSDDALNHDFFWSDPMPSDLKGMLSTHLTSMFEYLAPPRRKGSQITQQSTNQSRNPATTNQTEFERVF

logD [1]: 3.2 | fraction unbound [3]: 0.057 | fraction unbound [4]: 0.081 | hepatocyte CLint [5]: 77 µL/min/1e6 cells | hepatocyte CLint [6]: 4.8 µL/min/1e6 cells | hepatocyte CLint [7]: < 3 µL/min/1e6 cells | clearance [8]: 45 mL/min/kg | clearance [9]: 6 mL/min/kg | Vd [10]: 0.4 L/kg | Vd [11]: 0.7 L/kg | bioavailability [12]: 6% | bioavailability [13]: 63% | solubility thermodynamic at 24 h [2]: 9 µM (≈ 4.06 µg/mL)
Compound: CC(=O)N1CCC(n2ncc(Nc3ncc(Cl)c(-c4cnn5ccccc45)n3)c2C)CC1

logD [1]: 3.2 | fraction unbound [3]: 0.072 | hepatocyte CLint [5]: 48 µL/min/1e6 cells | clearance [14]: 62 mL/min/kg | Vd [15]: 1.6 L/kg | bioavailability [16]: 9% | solubility thermodynamic at 24 h [2]: 9 µM (≈ 4.06 µg/mL)
Compound: CC(=O)N1CCC(n2cc(Nc3ncc(Cl)c(-c4cnn5ccccc45)n3)c(C)n2)CC1

logD [1]: 3.4
Compound: CCc1nn(C2CCN(C(C)=O)CC2)cc1Nc1ncc(Cl)c(-c2cnn3ccccc23)n1

logD [1]: 3.1 | fraction unbound [3]: 0.086 | fraction unbound [4]: 0.12 | hepatocyte CLint [5]: 23 µL/min/1e6 cells | hepatocyte CLint [6]: 9.6 µL/min/1e6 cells | hepatocyte CLint [7]: 8.9 µL/min/1e6 cells | clearance [8]: 18 mL/min/kg | Vd [10]: 1.3 L/kg | bioavailability [12]: 61% | solubility thermodynamic at 24 h [2]: 4 µM (≈ 1.86 µg/mL)
Compound: CC(=O)N1CCC(n2nc(C)c(Nc3ncc(Cl)c(-c4cnn5ccccc45)n3)c2C)CC1

logD [1]: 2.8 | IC50 [17]: 135 nM
Compound: CC(=O)N1CCC(n2cc(Nc3ncc(Cl)c(-c4cnc5ccccn45)n3)c(C)n2)CC1

logD [1]: 3.3
Compound: COc1nn(C2CCN(C(C)=O)CC2)cc1Nc1ncc(Cl)c(-c2cnn3ccccc23)n1

logD [1]: 3.5
Compound: CCOc1nn(C2CCN(C(C)=O)CC2)cc1Nc1ncc(Cl)c(-c2cnn3ccccc23)n1

logD [1]: 2.9
Compound: COc1nn(C2CCN(C(C)=O)CC2)cc1Nc1ncc(Cl)c(-c2cnc3ccccn23)n1

logD [1]: 3.3
Compound: CCc1c(Nc2ncc(Cl)c(-c3cnn4ccccc34)n2)cnn1C1CCN(C(C)=O)CC1

Further lines, the compound ahead of its results:

Compound: Cc1nn(C2CCNCC2)c(C)c1Nc1ncc(Cl)c(-c2cnn3ccccc23)n1
logD [1]: 1.2 | solubility thermodynamic at 24 h [2]: 91 µM (≈ 38.5 µg/mL)

Compound: Cc1nn(C2CCN(C(=O)CN)CC2)c(C)c1Nc1ncc(Cl)c(-c2cnn3ccccc23)n1
logD [1]: 1.3 | solubility thermodynamic at 24 h [2]: 260 µM (≈ 125 µg/mL)

Compound: Cc1nn(C2CCN(CCO)CC2)c(C)c1Nc1ncc(Cl)c(-c2cnn3ccccc23)n1
logD [1]: 2.5 | solubility thermodynamic at 24 h [2]: 37 µM (≈ 17.3 µg/mL)

Compound: COCC(=O)N1CCC(n2nc(C)c(Nc3ncc(Cl)c(-c4cnn5ccccc45)n3)c2C)CC1
logD [1]: 2.8 | solubility thermodynamic at 24 h [2]: 31 µM (≈ 15.3 µg/mL)

Compound: Cc1nn(C2CCN(C(=O)CO)CC2)c(C)c1Nc1ncc(Cl)c(-c2cnn3ccccc23)n1
logD [1]: 2.6 | fraction unbound [3]: 0.091 | fraction unbound [4]: 0.12 | hepatocyte CLint [5]: 12 µL/min/1e6 cells | hepatocyte CLint [6]: 6.4 µL/min/1e6 cells | hepatocyte CLint [7]: < 3 µL/min/1e6 cells | clearance [8]: 8 mL/min/kg | clearance [9]: 5 mL/min/kg | Vd [10]: 1.2 L/kg | Vd [11]: 1.6 L/kg | bioavailability [12]: 81% | bioavailability [13]: 6% | solubility thermodynamic at 24 h [2]: 2 µM (≈ 0.962 µg/mL)

Compound: CNC(=O)CN1CCC(n2nc(C)c(Nc3ncc(Cl)c(-c4cnn5ccccc45)n3)c2C)CC1
logD [1]: 3.2 | solubility thermodynamic at 24 h [2]: 15 µM (≈ 7.41 µg/mL)

Compound: Cc1nn(C2CCN(C(=O)[C@@H](C)N)CC2)c(C)c1Nc1ncc(Cl)c(-c2cnn3ccccc23)n1
logD [1]: 1.7 | solubility thermodynamic at 24 h [2]: 620 µM (≈ 306 µg/mL)

Compound: COc1cc(N2CCN(C(C)=O)CC2)ccc1Nc1ncc(Cl)c(-c2cnn3ccccc23)n1
logD [1]: 3.7 | solubility thermodynamic at 24 h [2]: 1 µM (≈ 0.478 µg/mL) | IC50 [17]: 1030 nM | IC50 (Cytochrome P450 3A4): < 1000 nM

Compound: Cc1nn(C2CCN(C(=O)[C@@H](C)O)CC2)c(C)c1Nc1ncc(Cl)c(-c2cnn3ccccc23)n1
logD [1]: 2.9 | fraction unbound [3]: 0.18 | fraction unbound [4]: 0.12 | hepatocyte CLint [5]: 21 µL/min/1e6 cells | hepatocyte CLint [6]: 8.1 µL/min/1e6 cells | hepatocyte CLint [7]: < 3 µL/min/1e6 cells | clearance [8]: 15 mL/min/kg | clearance [9]: 7 mL/min/kg | Vd [10]: 0.8 L/kg | Vd [11]: 1.3 L/kg | bioavailability [12]: 58% | bioavailability [13]: 38% | solubility thermodynamic at 24 h [2]: 17 µM (≈ 8.41 µg/mL) | Time (Mus musculus): 8 h | AUC [18]: 30 µM·h | Cmax [19]: 12 µM | inhibition (P12 [20]): Dose-dependent effect | TGI (P12 [21]): Active | TGI (COLO 205 [22]): Active | TGI (COLO 205 [23]): Active | Activity (COLO 205 [24]): Active | TGI (COLO 205 [25]): Active

Compound: Cc1nn(C2CCNCC2)cc1Nc1ncc(Cl)c(-c2cnc3ccccn23)n1
logD [1]: 1.1

Compound: CC(=O)N1CCC(n2ncc(Nc3ncc(Cl)c(-c4cnc5ccccn45)n3)c2C)CC1
logD [1]: 2.7

Compound: CC(=O)N1CCC(n2nc(C)c(Nc3ncc(Cl)c(-c4cnc5ccccn45)n3)c2C)CC1
logD [1]: 2.8

Compound: Cc1nn(C2CCN(C(=O)[C@H](C)N)CC2)c(C)c1Nc1ncc(Cl)c(-c2cnn3ccccc23)n1
logD [1]: 1.7 | solubility thermodynamic at 24 h [2]: 670 µM (≈ 331 µg/mL)

Compound: Cc1c(Nc2ncc(Cl)c(-c3cnc4ccccn34)n2)cnn1C1CCNCC1
logD [1]: 0.9

Compound: Cc1nn(C2CCN(CC(=O)N(C)C)CC2)c(C)c1Nc1ncc(Cl)c(-c2cnn3ccccc23)n1
logD [1]: 2.9 | solubility thermodynamic at 24 h [2]: 510 µM (≈ 259 µg/mL)

Compound: CC(=O)N1CCC(n2cc(Nc3ncc(Cl)c(-c4cnc5ccccn45)n3)cn2)CC1
logD [1]: 3.1 | IC50 [17]: 25 nM | IC50 [26]: 66 nM | IC50 [27]: 21 nM | IC50 [28]: 42 nM | IC50 [29]: 37 nM

Compound: CNCC(=O)N1CCC(n2nc(C)c(Nc3ncc(Cl)c(-c4cnn5ccccc45)n3)c2C)CC1
logD [1]: 1.4 | solubility thermodynamic at 24 h [2]: > 1000 µM

Compound: Cc1nn(C2CCN(C(=O)[C@H](C)O)CC2)c(C)c1Nc1ncc(Cl)c(-c2cnn3ccccc23)n1
logD [1]: 2.8 | solubility thermodynamic at 24 h [2]: 17 µM (≈ 8.41 µg/mL)
